Assay results from PMC4594923, “Food Polyphenols Fail to Cause a Biologically Relevant Reduction of COX-2 Activity” (PLoS ONE, 2015).
Several values for one entry are separate records, joined by “and”; a condition that tells them apart may be missing. Equal values may be shown once. Entries after “also recorded” stand apart in the source; their conditions may differ.

Key:
[1] = target: T1, COX–2 (Homo sapiens, UniProt P35354); test: PGE2 formation in LPS stimulated primary human monocytes (24 h, LC-MS); assay type: cell-based; conditions: for IC50: read-out: IC50 (95% CI), primary monocytes
T1 sequence (P35354 18-604): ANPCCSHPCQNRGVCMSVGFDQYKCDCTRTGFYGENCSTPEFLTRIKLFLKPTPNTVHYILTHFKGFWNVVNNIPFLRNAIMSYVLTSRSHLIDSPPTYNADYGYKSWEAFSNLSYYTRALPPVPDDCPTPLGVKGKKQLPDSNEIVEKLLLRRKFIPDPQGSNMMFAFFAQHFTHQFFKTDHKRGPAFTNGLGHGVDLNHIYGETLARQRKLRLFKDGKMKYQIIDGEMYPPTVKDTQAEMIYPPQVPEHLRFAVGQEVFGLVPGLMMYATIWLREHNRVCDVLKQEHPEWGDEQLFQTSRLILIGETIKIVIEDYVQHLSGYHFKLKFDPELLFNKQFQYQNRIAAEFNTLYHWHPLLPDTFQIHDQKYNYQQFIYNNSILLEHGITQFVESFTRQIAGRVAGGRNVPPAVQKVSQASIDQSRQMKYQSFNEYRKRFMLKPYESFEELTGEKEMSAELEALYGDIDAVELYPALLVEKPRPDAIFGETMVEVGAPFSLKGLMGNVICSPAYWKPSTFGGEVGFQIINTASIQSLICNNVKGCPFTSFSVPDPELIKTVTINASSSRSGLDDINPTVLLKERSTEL
Description: (§1) The in vitro assays were performed as described [6, 16, 18] and COX metabolites were quantified by LC-MS [18].
(§2) Primary human monocytes were freshly isolated from human blood. Blood was collected from healthy human subjects after written informed consent was obtained. […] After 24 h, the supernatant was sampled for LC-MS and cells were collected for the COX–2 expression analysis by Western Blotting.
(§3) GraphPad Prism 5.0 (GraphPad Software, San Diego, USA) was used for data analysis, the fitting of dose response curves and calculation of the IC50 values. Statistical differences were determined by Dunnetts test (LPS vs. other groups).

[2] = cited from earlier work
[3] = test system: COX–2 protein; test: COX–2 expression in HCA–7 cells (Western Blot); assay type: cell-based, human; conditions: 24 h, vs. control
Description: (§4) HCA–7 cells were incubated with sub-cytotoxic concentrations of the polyphenols dissolved in Tris buffered DMEM medium. Cytotoxicity of the polyphenols was evaluated by the lactate dehydrogenase leakage test (Cyto-Tox-ONE, Promega Mannheim, Germany). After 24 h the supernatant was collected for LC-MS analysis and the cells were harvested to analyze the COX–2 expression by Western Blotting.

[4] = test system: COX–2 protein; test: COX–2 expression in LPS stimulated primary human monocytes (Western Blot); conditions: 24 h, vs. control
Description: as §2

[5] = target: T1, COX–2; test: PGE2 formation in HCA–7 cells (24 h, LC-MS); assay type: cell-based; conditions: for IC50 (95% CI), HCA-7 cell line: calculated based on PGE2, n = 3, 24 h; for changes of PGE2 formation in HCA–7 cells: non-cytotoxic concentrations, 24 h
Description: as §1, §4
After 24 h, the supernatant was sampled for LC-MS and cells were collected for the COX–2 expression analysis by Western Blotting.
as §3

[6] = test system: COX–2; conditions: cited from earlier work
[7] = target: T1, COX–2; test: cell-free COX–2 enzyme assay (PGE2 formation, LC-MS); assay type: biochemical; conditions: for IC50 / IC50 (95% CI), COX–2 enzyme assay: calculated based on PGE2, n = 3; for IC50: read-out: IC50 (95% CI), COX–2 enzyme assay
Description: as §1, §2, §3

[8] = test system: COX–2 protein; conditions: cited from earlier work
[9] = target: T2, ovine recombinant COX–1 (Ovis aries, UniProt P05979); test: cell-free COX–1 enzyme assay (PGE2 formation, LC-MS); assay type: biochemical; design: purchased Cayman Chemicals/ Biomol, Hamburg, Germany; conditions: for IC50 / IC50 (95% CI), COX–1 enzyme assay: calculated based on PGE2, n = 3; for IC50: read-out: IC50 (95% CI), COX–1 enzyme assay
T2 sequence (P05979 25-600): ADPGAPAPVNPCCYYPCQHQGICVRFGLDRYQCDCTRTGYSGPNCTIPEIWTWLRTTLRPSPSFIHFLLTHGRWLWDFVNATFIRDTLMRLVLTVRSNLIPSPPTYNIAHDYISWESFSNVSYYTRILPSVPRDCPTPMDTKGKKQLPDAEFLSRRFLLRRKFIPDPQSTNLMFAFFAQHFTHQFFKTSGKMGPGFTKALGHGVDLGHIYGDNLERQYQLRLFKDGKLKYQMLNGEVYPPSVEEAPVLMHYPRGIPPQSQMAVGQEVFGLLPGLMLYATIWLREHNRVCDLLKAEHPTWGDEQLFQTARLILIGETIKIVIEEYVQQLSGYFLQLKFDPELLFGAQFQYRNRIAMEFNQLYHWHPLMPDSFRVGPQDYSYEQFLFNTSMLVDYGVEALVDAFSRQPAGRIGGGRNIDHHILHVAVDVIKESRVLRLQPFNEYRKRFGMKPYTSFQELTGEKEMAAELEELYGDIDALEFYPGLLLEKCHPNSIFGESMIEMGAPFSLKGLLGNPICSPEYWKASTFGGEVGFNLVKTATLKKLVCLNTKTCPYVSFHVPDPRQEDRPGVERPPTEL

[10] = LPS stimulated, calculated based on PGE2, n = 3, 24 h

| IC50 (95% CI), HCA-7 cell line [5] | IC50 [7] [µM] | IC50 [9] [µM] | IC50 [1, 10] [µM] | IC50 (95% CI), COX–2 enzyme assay [7] | IC50 (95% CI), COX–1 enzyme assay [9] | Compound | COX-2 Expression, HCA-7 cell line [3] | COX-2 Expression, primary monocytes [4] | changes of PGE2 formation in HCA–7 cells [5] | effect on COX–2 dependent PGE2 formation, cell-free enzyme assay [7] | effect on COX–1 dependent PGE2 formation, cell-free enzyme assay [9] | COX–2 protein levels, LPS stimulated RAW 264.7 cells [8] | other results |
| --- | --- | --- | --- | --- | --- | --- | --- | --- | --- | --- | --- | --- | --- |
|  |  |  | 29 | no effect (up to 100 μM) | no effect (up to 100 μM) | O=C1C[C@@H](c2ccc(O)cc2)Oc2cc(O)cc(O)c21 [Naringenin, naringenin] | 100 μM:COX–2 ↓ | 100, 30 μM:COX–2 ↓ | affected | no effect | no effect | decreased COX–2 protein levels | plasma peak level, total naringenin (free and conjugated form) ([2]; humans, ingestion of grapefruit juice (0.2 g total naringenin)): 6 µM; COX-2 Expression, HCA-7 cell line ([3]; listed as naringenin): decreased COX–2 expression; COX-2 Expression, primary monocytes ([4]; listed as naringenin): Decreased COX–2 protein levels; inhibition at 100 µM ([5]; HCA-7, 100 μM, read-out: inhibition, HCA-7 cell line): 53% |
|  |  |  | 24 | no effect (up to 100 μM) | no effect (up to 100 μM) | COc1ccc(-c2cc(=O)c3c(OC)c(OC)c(OC)c(OC)c3o2)cc1OC [Nobiletin, nobiletin] | 100 μM:COX–2 ↓ | no effect(up to 100 μM) | no or only slight; also recorded: affected | no effect | no effect | decreased COX–2 protein levels | COX-2 Expression, HCA-7 cell line ([3]; listed as nobiletin): decreased COX–2 expression; inhibition, HCA-7 cell line ([5]; up to 100 μM): inhibition < 50%(up to 100 μM) |

Further lines, the compound ahead of its results:

| Compound | IC50 (95% CI), HCA-7 cell line [5] | IC50 [7] [µM] | IC50 [9] [µM] | IC50 [1, 10] [µM] | IC50 (95% CI), COX–2 enzyme assay [7] | IC50 (95% CI), COX–1 enzyme assay [9] | COX-2 Expression, HCA-7 cell line [3] | COX-2 Expression, primary monocytes [4] | changes of PGE2 formation in HCA–7 cells [5] | effect on COX–2 dependent PGE2 formation, cell-free enzyme assay [7] | effect on COX–1 dependent PGE2 formation, cell-free enzyme assay [9] | COX–2 protein levels, LPS stimulated RAW 264.7 cells [8] | other results |
| --- | --- | --- | --- | --- | --- | --- | --- | --- | --- | --- | --- | --- | --- |
| O=C(O[C@@H]1Cc2c(O)cc(O)cc2O[C@@H]1c1cc(O)c(O)c(O)c1)c1cc(O)c(O)c(O)c1 [EGCG, epigallocatechingallat] | no effect (up to 10 μM) | 32 | 17 |  |  |  | no effect(up to 10 μM) | Decreased COX–2 protein levels and 10 μM:COX–2 ↓ | no or only slight | dose-dependently decreased; also recorded: inhibited | dose-dependently decreased; also recorded: inhibited |  | IC50 (95% CI), primary monocytes [1, 10]: no effect(up to 10 μM); maximal plasma concentrations ([2]; in vivo): 0.13 to 0.33 µM; PGE2 formation / levels, RAW 264.7 cells [6]: lack of effect; COX–2 (protein) levels, RAW 264.7 cells [8]: slight increase |
| COc1c(O)cc(O)c2c(=O)cc(-c3ccccc3)oc12 [Wogonin, wogonin] |  |  |  |  |  | no effect (up to 100 μM) |  |  |  |  | no effect |  | IC50 ([6]; read-out: IC50, LPS stimulated murine macrophages): 0.3 µM |
| hopeaphenol | no effect (up to 1 μM) | 22 | 4 |  |  |  | no effect (up to 1 μM) | 1 μM: COX–2 ↓ | no or only slight | dose-dependently decreased; also recorded: inhibited | dose-dependently decreased; also recorded: inhibited |  | inhibition, primary monocytes ([1]; up to 1 μM): inhibition < 50% (up to 1 μM); COX-2 Expression, primary monocytes ([4]; listed as hopeaphenol): Decreased COX–2 protein levels |
